# Where “and” joins values, the source holds several entries; their conditions need not be identical. Equal entries are not always repeated. Where two headings read alike, the source gives them in different places.
# Assays:
# Sprague Dawley rats = conditions: for Liver Necrosis / Score (histopathology liver necrosis severity score): rat, intraperitoneal; for Liver Necrosis: 72 hours after treatment; for Score (histopathology liver necrosis severity score): 72 hours, 1 = not remarkable, 2 and higher increasing severity
# Procedure, shortened: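 Toxicity calls (necrosis present or absent at 72 h) and histopathology scores were correlated with tissue gene expression from Crl:CD Sprague Dawley rats. Animals, usually 3 treated with compound by i.p. route and 3 given vehicle, were killed at 6, 24 or 72 h and tissues frozen immediately in liquid nitrogen.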
# [1] = test system: toxicologically relevant rat genes (rat CT array); conditions: 24 h; dose 200; listed as BRB
compound,measurement,setting,value
Brc1ccccc1 [bromobenzene],Liver Toxicity Necrosis Classification,"Sprague Dawley rats; 72 h, compound-dose group, dose BRB 800, BUS 14, CAD 1, CAR 16",yes
same,Liver Toxicity Necrosis Classification,"Sprague Dawley rats; 72 h, dose 200, animals 2327, 2328, 2329",yes
same,Liver Toxicity Necrosis Classification,"Sprague Dawley rats; 72 h, dose 800, animal 2337",yes
same,Liver Toxicity Necrosis Classification,"Sprague Dawley rats; compound-dose group at 72 h, dose 200, yes = necrosis observed",yes
same,Liver Toxicity Necrosis Classification,"Sprague Dawley rats; compound-dose group at 72 h, dose 800, yes = necrosis observed",yes
same,Liver Toxicity Necrosis Classification,"Sprague Dawley rats; compound-dose group at 72 h, dose 200",yes
same,Liver Toxicity Necrosis Classification,"Sprague Dawley rats; compound-dose group at 72 h, dose 800",yes
same,Liver Necrosis,Sprague Dawley rats; dose 0.2 ml/kg,Yes
same,Score (histopathology liver necrosis severity score),Sprague Dawley rats; dose 0.2 ml/kg,2
same,Liver Necrosis,Sprague Dawley rats; dose 0.8 ml/kg,Yes
same,Score (histopathology liver necrosis severity score),Sprague Dawley rats; dose 0.8 ml/kg,4
same,3-hydroxyisobutyrate dehydrogenase expression (treatment/control),[1],0.8751 and 1.339 and 0.6927
same,14-3-3 zeta expression (treatment/control),[1],1.437 and 1.592
same,25-DX expression (treatment/control),[1],1.969 and 1.763 and 1.86
same,60S ribosomal protein L6 expression (treatment/control),[1],2.093 and 1.63 and 1.941
same,Alpha-2-macroglobulin expression (treatment/control),[1],0.5548 and 0.5467 and 0.459
same,Apolipoprotein CIII expression (treatment/control),[1],0.8126 and 0.7007
same,Argininosuccinate lyase expression (treatment/control),[1],2.651 and 1.764 and 2.145
same,Bax (alpha) expression (treatment/control),[1],1.536 and 1.414 and 1.327
same,Beta-actin expression (treatment/control),[1],2.486 and 1.816 and 2.608
same,"Beta-tubulin, class I expression (treatment/control)",[1],2.668 and 1.782 and 2.339
same,Carbonyl reductase expression (treatment/control),[1],1.678 and 1.035 and 1.375
same,"Cathepsin L, sequence 2 expression (treatment/control)",[1],2.896 and 1.549 and 2.344
same,Cofilin expression (treatment/control),[1],2.923 and 2.064 and 2.935
same,DNA polymerase beta expression (treatment/control),[1],1.369 and 1.206 and 1.307
same,Dynamin-1 (D100) expression (treatment/control),[1],0.8053 and 0.7635 and 0.8226
same,Elongation factor-1 alpha expression (treatment/control),[1],2.054 and 1.728 and 1.8
same,"Endogenous retroviral sequence, 5′ and 3′ LTR expression (treatment/control)",[1],1.854 and 1.585 and 2.582
same,Enolase alpha expression (treatment/control),[1],2.419 and 1.535 and 1.712
same,Epidermal growth factor expression (treatment/control),[1],0.7593 and 0.7117 and 0.804
same,Fas antigen expression (treatment/control),[1],0.9199 and 0.9142 and 1.12
same,Glucose-regulated protein 78 expression (treatment/control),[1],1.405 and 1.625 and 1.635
same,Hepatic lipase expression (treatment/control),[1],0.569 and 0.6299 and 0.3937
same,ID-1 expression (treatment/control),[1],1.9 and 1.248 and 1.715
same,Integrin beta1 expression (treatment/control),[1],1.457 and 0.9085 and 1.427
same,MAP kinase kinase expression (treatment/control),[1],1.27 and 1.166 and 1.092
same,Matrin F/G expression (treatment/control),[1],0.6546 and 0.8987 and 0.4635
same,Matrix metalloproteinase-1 expression (treatment/control),[1],1.585 and 1.263 and 1.628
same,Melanoma-associated antigen ME491 expression (treatment/control),[1],1.388 and 0.9209 and 1.67
same,Monocyte chemotactic protein receptor (CCR2) expression (treatment/control),[1],1.124 and 0.9935 and 1.064
same,Multidrug resistant protein-2 expression (treatment/control),[1],1.861 and 1.261 and 1.657
same,Nucleoside diphosphate kinase beta isoform expression (treatment/control),[1],1.862 and 1.504 and 1.541
same,Organic anion transporter 3 expression (treatment/control),[1],0.5569 and 0.821 and 0.6551
same,Organic cation transporter 3 expression (treatment/control),[1],1.241 and 0.9547 and 1.365
same,Ornithine decarboxylase expression (treatment/control),[1],2.762 and 1.488 and 2.288
same,Phase-1 RCT-12 expression (treatment/control),[1],1.003
same,Phase-1 RCT-15 expression (treatment/control),[1],2.352 and 2.155
same,Phase-1 RCT-36 expression (treatment/control),[1],0.7233 and 0.7082 and 0.8303
same,Phase-1 RCT-37 expression (treatment/control),[1],0.9672
same,Phase-1 RCT-65 expression (treatment/control),[1],1.706 and 1.856
same,Phase-1 RCT-68 expression (treatment/control),[1],1.972 and 1.887
same,Phase-1 RCT-72 expression (treatment/control),[1],1.442
same,Phase-1 RCT-78 expression (treatment/control),[1],0.6352 and 0.7712 and 0.5322
same,Phase-1 RCT-83 expression (treatment/control),[1],0.6204 and 0.729
same,Phase-1 RCT-88 expression (treatment/control),[1],0.7128 and 0.75 and 0.8397
same,Phase-1 RCT-109 expression (treatment/control),[1],1.895 and 1.651 and 2.226
same,Phase-1 RCT-117 expression (treatment/control),[1],0.6683 and 0.7437
same,Phase-1 RCT-123 expression (treatment/control),[1],0.7152 and 0.6828 and 0.8648
same,Phase-1 RCT-137 expression (treatment/control),[1],1.102 and 0.6023
same,Phase-1 RCT-152 expression (treatment/control),[1],1.957 and 1.542 and 2.109
same,Phase-1 RCT-154 expression (treatment/control),[1],0.9986 and 1.304
same,Phase-1 RCT-168 expression (treatment/control),[1],0.6821 and 0.7986 and 0.5665
same,Phase-1 RCT-180 expression (treatment/control),[1],1.503
same,Phase-1 RCT-181 expression (treatment/control),[1],0.8932 and 0.9997
same,Phase-1 RCT-182 expression (treatment/control),[1],1.301 and 0.688
same,Phase-1 RCT-189 expression (treatment/control),[1],0.5887 and 0.552
same,Phase-1 RCT-191 expression (treatment/control),[1],1.728 and 1.302 and 2.139

# From patent US20040076974A1, “Liver necrosis predictive genes” (priority 2002, published 2004)
